Source: patent US10702515B2, “Compositions containing aromatic aldehydes and their use in treatments” (Allergan, Inc., priority 2001, dated 2020)

Columns and labels:
IL-1 induction of PGE-2 = experiment: IL-1 induced PGE-2 in human skin fibroblasts (ELISA); assay type: cell-based; conditions: for inhibition at 50 µM: Example 3 (FIG. 4A/4B); for inhibition at 100 µM: Example 3 (FIG. 4A); for IL-1 induction of PGE-2 blocked: Example 2 dose-response (FIG. 3)
Experimental: (§1) For this experiment, human skin fibroblasts were seeded into 12 well culture dishes, at a density of 80,000 cells/well in tissue culture medium and left overnight to attach to the dish. The next day, medium was removed and replaced with fresh medium containing either 1% ethanol as a diluent control, IL-1 at a concentration of 500 picograms/ml, or IL-1 plus 4-EB at either 250 μM or 500 μM. Cells were incubated for an additional 24 hours and at this time, the medium was removed and assayed by ELISA for the presence of PGE-2 the culture medium.
Subsequent studies were carried out to determine the dose-response of human skin fibroblasts to 4-EB. […] The results of the study are provided graphically in FIG. 3.
as §1, with “culture dishes” for “culture dishes,”, “plus one of the compounds under investigation” for “plus 4-EB”, “at a concentration of 1, 10, 50” for “at either 250 μM”, “or 100” for “or 500”, “PGE-2 in” for “PGE-2”

[1] = system: TPA-induced PGE2 expression in keratinocytes; experiment: TPA induced PGE-2 in human skin keratinocytes (ELISA); assay type: cell-based; conditions: Keratinocyte, Example 4 (FIG. 5), TPA 32 nM, read-out: percent inhibition of TPA induced PGE-2
Experimental: as §1, with “culture dishes” for “culture dishes,”, “plus one of the compounds under investigation” for “plus 4-EB”, “at a concentration of 1, 10, 50” for “at either 250 μM”, “or 100” for “or 500”, “PGE-2 in” for “PGE-2”
Similar in vitro studies as those described in Example 3 were run using human skin keratinocytes. The experimental set up was the same as described for Example 3 but replacing IL-1 with tetradecanoyl phorbol acetate (TPA) at a concentration of 32 nM as the agonist. The compounds tested were 2-ethoxybenzaldehyde (2-EB) and 3-ethoxybenzaldehyde (3-EB) and 4-ethoxybenzaldehyde (4-EB) in concentrations of either 10, 50, or 100 μM.

[2] = Franz cell percutaneous absorption analysis; assay type: in vitro ADME, human; conditions: from 1.0% 4-EB lotion; 24 hour period
Experimental: This lotion was then tested by Franz cell percutaneous absorption analysis to determine how much 4-EB could penetrate human skin over a 24 hour period. The lotion formulation above provided a flux rate of 4-EB through human skin of 30-50 micrograms/hour.

[3] = Homo sapiens, Skin fibroblast, 50 μM, IL-1 500 picograms/ml, 24 hours, read-out: Percent inhibition of IL-1 induced PGE-2
[4] = Homo sapiens, Skin fibroblast, 100 μM, IL-1 500 picograms/ml, 24 hours, read-out: Percent inhibition of IL-1 induced PGE-2

Structure (SMILES)	inhibition of the IL-1 induced production of PGE-2 (in words) (IL-1 induction of PGE-2; Example 3, 10 or 50 μM)	inhibition at 50 µM (IL-1 induction of PGE-2; [3]) [%]	inhibition at 10 µM (IL-1 induction of PGE-2; Homo sapiens, Skin fibroblast, Example 3 (FIG. 4B), 10 μM, IL-1 500 picograms/ml, 24 hours, read-out: Percent inhibition of IL-1 induced PGE-2) [%]	inhibition at 100 µM (IL-1 induction of PGE-2; [4]) [%]	inhibition at 50 µM [1] [%]	inhibition at 100 µM [1] [%]	inhibition at 10 µM ([1]; 10 μM) [%]	flux rate of 4-EB through human skin [2]	inhibition of the IL-1 induction of PGE-2 (IL-1 induction of PGE-2; Example 1, 250 μM or 500 μM, IL-1 500 picograms/ml, 24 hours)	IL-1 induction of PGE-2 blocked (IL-1 induction of PGE-2; 10 μM) [%]	IL-1 induction of PGE-2 blocked (IL-1 induction of PGE-2; 50 μM) [%]	IL-1 induction of PGE-2 blocked (IL-1 induction of PGE-2; 100 μM)
COc1ccc(C=O)cc1 [4-MB, 4-methoxybenzaldehyde]	did not appear to inhibit	13.6	16.2	–	–	–	–	–	–	–	–	–
CCOc1cccc(C=O)c1 [3-EB, 3-ethoxybenzaldehyde]	–	42.6	–	41.2	57.7	76.7	–	–	–	–	–	–
CCOc1ccccc1C=O [2-EB, 2-ethoxybenzaldehyde]	–	58.9	–	82.9	76.6	83	55.2	–	–	–	–	–
CCOc1ccc(C=O)cc1 [4-EB, 4-ethoxybenzaldehyde]	–	–	–	81.5	79.9	94.9	–	30-50 micrograms/hour	complete inhibition	35	82	completely blocked
